# From the supplement of paper PMC11451515
# System: SEM cells
# Assay: cell viability relative to DMSO control; higher = less cytotoxic
# Details: 48 h
# In short: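 In 1536-well plates, 5 μl of leukemia cells were seeded per well: 500 cells/well for NOMO1 or SEM and 1000 cells/well for P12-Ichikawa. Each line had first been adapted for at least four passages in each medium. Library compounds in DMSO were pin-dosed at 11 threefold concentrations between 47 μM and 0.79 nM, and CellTiter-Glo One luminescence was read after 48 h at 37°C. Viability is a per-plate percentage relative to DMSO wells, with cell-free wells as background.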
# [1] = HPLM + 10% dialyzed FBS, 0.000781 µM
# [2] = HPLM + 10% dialyzed FBS, 0.00234 µM
# [3] = HPLM + 10% dialyzed FBS, 0.00702 µM
# [4] = HPLM + 10% dialyzed FBS, 0.0211 µM
# [5] = HPLM + 10% dialyzed FBS, 0.0632 µM
# [6] = HPLM + 10% dialyzed FBS, 0.19 µM
# [7] = HPLM + 10% dialyzed FBS, 0.569 µM
# [8] = HPLM + 10% dialyzed FBS, 1.71 µM
# [9] = HPLM + 10% dialyzed FBS, 5.12 µM
# [10] = HPLM + 10% dialyzed FBS, 15.4 µM
# [11] = HPLM + 10% dialyzed FBS, 46.1 µM
# [12] = RPMI 5 mM glucose + 10% FBS, 0.000781 µM
# [13] = RPMI 5 mM glucose + 10% FBS, 0.00234 µM
# [14] = RPMI 5 mM glucose + 10% FBS, 0.00702 µM
# [15] = RPMI 5 mM glucose + 10% FBS, 0.0211 µM
# [16] = RPMI 5 mM glucose + 10% FBS, 0.0632 µM
# [17] = RPMI 5 mM glucose + 10% FBS, 0.19 µM
# [18] = RPMI 5 mM glucose + 10% FBS, 0.569 µM
# [19] = RPMI 5 mM glucose + 10% FBS, 1.71 µM
# [20] = RPMI 5 mM glucose + 10% FBS, 5.12 µM
# [21] = RPMI 5 mM glucose + 10% FBS, 15.4 µM
# [22] = RPMI 5 mM glucose + 10% FBS, 46.1 µM
# [23] = RPMI 5 mM glucose + 10% dialyzed FBS, 0.000781 µM
# [24] = RPMI 5 mM glucose + 10% dialyzed FBS, 0.00234 µM
# [25] = RPMI 5 mM glucose + 10% dialyzed FBS, 0.00702 µM
# [26] = RPMI 5 mM glucose + 10% dialyzed FBS, 0.0211 µM
# [27] = RPMI 5 mM glucose + 10% dialyzed FBS, 0.0632 µM
# [28] = RPMI 5 mM glucose + 10% dialyzed FBS, 0.19 µM
# [29] = RPMI 5 mM glucose + 10% dialyzed FBS, 0.569 µM
# [30] = RPMI 5 mM glucose + 10% dialyzed FBS, 1.71 µM
# [31] = RPMI 5 mM glucose + 10% dialyzed FBS, 5.12 µM
# [32] = RPMI 5 mM glucose + 10% dialyzed FBS, 15.4 µM
# [33] = RPMI 5 mM glucose + 10% dialyzed FBS, 46.1 µM
SMILES,cell viability [1] [%],cell viability [2] [%],cell viability [3] [%],cell viability [4] [%],cell viability [5] [%],cell viability [6] [%],cell viability [7] [%],cell viability [8] [%],cell viability [9] [%],cell viability [10] [%],cell viability [11] [%],cell viability [12] [%],cell viability [13] [%],cell viability [14] [%],cell viability [15] [%],cell viability [16] [%],cell viability [17] [%],cell viability [18] [%],cell viability [19] [%],cell viability [20] [%],cell viability [21] [%],cell viability [22] [%],cell viability [23] [%],cell viability [24] [%],cell viability [25] [%],cell viability [26] [%],cell viability [27] [%],cell viability [28] [%],cell viability [29] [%],cell viability [30] [%],cell viability [31] [%],cell viability [32] [%],cell viability [33] [%]
O=C1N\C=N/C2=C1C=N[NH]2,74.3,77.4,74,95.1,70.6,90.7,77.2,22.6,93.8,94.5,41.9,70.2,79,69.4,90.4,62.5,91.7,81.2,20.2,81.6,88.8,71.8,74.8,86.2,81.4,104,79.1,99.2,82.1,32.9,96.1,86.7,47.4
CC[C@@H]1C(=O)N(C)c2cnc(Nc3ccc(C(=O)NC4CCN(C)CC4)cc3OC)nc2N1C1CCCC1,,,,,,,,,,,,104,125,114,116,39,19.9,20.8,17.8,13.5,7.48,3.43,117,128,105,128,37.9,23.2,22.1,18.9,11.1,6.14,3.08
Cc1cccc2c1CC[C@H](CN1CCC(c3c(Cl)cccc3Cl)CC1)C[C@@H]2O,71,98.2,113,111,128,114,116,122,101,96.6,79.9,112,138,120,127,130,111,142,133,108,72.5,58,88.5,109,118,126,120,95.8,104,112,91.9,70.6,58.3
CC(C)(O)C(=O)Nc1ccc([N+](=O)[O-])c(C(F)(F)F)c1,98.6,107,115,108,116,113,124,123,117,123,103,92.2,97,91.9,91.3,101,97.6,103,114,104,123,82.8,112,114,112,120,112,118,135,123,131,128,126
CC(C)CC(N(C)C)C1(c2ccc(Cl)cc2)CCC1 (configuration not stated),114,119,117,133,124,117,126,110,90.4,54.3,59.1,111,127,118,116,121,128,121,105,75,40.2,46.7,,,,,,,,,,,
Nc1nc(NCCNc2ncc(-n3ccnc3)c(-c3ccc(Cl)cc3Cl)n2)ccc1[N+](=O)[O-],120,134,112,135,123,132,132,99.6,104,121,107,,,,,,,,,,,,135,124,119,129,138,123,128,116,93.4,116,103
CN1CCN(CCCN2c3ccccc3Sc3ccc(Cl)cc32)CC1.O=C(O)/C=C\C(=O)O.O=C(O)/C=C\C(=O)O,105,112,110,113,108,112,104,114,112,117,82.2,102,113,118,111,129,122,119,121,119,115,68.6,101,99.7,128,113,115,122,119,133,133,116,104
Nc1ccc([S+](=O)([O-])Nc2ncccn2)cc1,100,103,105,96.8,109,117,99.7,110,103,109,112,110,108,120,86.1,117,117,108,122,126,114,110,111,109,125,74.4,122,136,133,129,145,134,124
COc1cc(OC)c(C(=O)CCCN2CCCC2)c(OC)c1,119,117,127,114,115,108,115,113,93,107,109,122,143,118,135,126,118,127,112,109,105,123,,,,,,,,,,,
C[C@H](Cc1ccc(O)c(O)c1)[C@@H](C)Cc1ccc(O)c(O)c1,123,121,113,116,130,116,29,118,122,105,28.8,117,110,105,104,117,103,37.3,118,128,101,6.24,144,113,119,128,131,116,36.6,109,112,109,7.68
COc1ccc(-c2oc3cc(OC)ccc3c2C(=O)c2ccc(C#N)cc2)cc1,114,117,120,121,128,136,129,141,131,142,125,93.2,109,133,127,130,140,139,148,136,123,124,113,123,144,124,150,175,162,174,147,136,136
N=C(N)Nc1ccc(C(=O)Oc2ccc3cc(C(=N)N)ccc3c2)cc1,95.5,87.7,87.7,92.8,96.7,25.8,102,105,95.4,99.4,79.2,91.5,87.6,85.5,83.1,86.1,21.5,88.7,93.6,88.8,93.4,84,112,90.4,87.3,113,91.7,29.6,99.6,110,92.3,110,80.4
COc1ccc(C2(C#N)CCC(C(=O)O)CC2)cc1OC1CCCC1 (configuration not stated),85.5,97.5,95.9,101,99.6,102,103,94.7,105,106,114,77.3,85.3,94.1,90.4,87.4,95.5,104,95.8,88.3,99.4,99.6,81.8,86.8,104,94.4,84.3,95.5,92.2,100,90.4,96.9,96.3
CC(C)c1c(C(=O)Nc2ccccc2)c(-c2ccccc2)c(-c2ccc(F)cc2)n1CC[C@@H](O)C[C@@H](O)CC(=O)[O-],108,117,103,113,112,102,93.2,104,99.8,75,69.9,81.9,92.3,110,120,103,86.3,98.3,97,88.6,70,45.1,99.6,109,104,106,93.4,68.5,104,97.8,93.3,80,60.9
Cc1nc(N)ncc1-c1nc(N2CCOCC2)c2sc(C(C)(C)O)cc2n1,97.7,114,118,118,113,40.1,14.2,9.64,8.13,7.64,5.09,92.7,85.3,78.2,74.2,13.6,11.7,9.07,7.73,6.03,5.59,4.95,115,130,112,122,79.5,17.6,13,9.39,7.85,6.82,5.41
CN(C)[C@@H](CCOc1cccc2ccccc12)c1ccccc1,139,115,125,110,119,120,100,108,111,107,65,120,122,122,127,132,131,103,118,95.7,114,71.2,101,121,117,127,131,129,91.5,132,101,136,81
Oc1c(Cl)cc(Cl)c2cccnc12,112,77,121,104,109,120,122,108,104,66.3,12.3,108,102,94,103,102,113,120,91.4,112,71,7.14,107,93.8,85.1,97.2,97.5,96.3,101,116,99.1,59.8,7.1
